Source: article PMC9719519, “Non-classical ferroptosis inhibition by a small molecule targeting PHB2” (Nature Communications, 2022)

What was measured:
Test in all cases: biochemical
Parameters in all cases: Eurofins recombinant human kinase profiling, remaining kinase activity as % of control, 10 uM ATP
Details in all cases: ATP 10 uM; read-out: %Ctrl@10 μM
Abl(T315I)(h) = molecular target: T1, Abl(T315I)(h) (Homo sapiens, UniProt P00519, T315I)
T1 construct: gene ABL1
Source text: (§1) To rapidly determine the biological target of YL-939, we first tested the activity of YL-939 against a panel of 401 recombinant human protein kinases by using the kinase profiling assay provided by Eurofins, since kinases are often the key components in various signal pathways[35],[36]. […] We then carried out affinity-based proteome profiling assay (ABPP) coupled with bioimaging to identify the biological target of YL-939 (Fig. 4A). To this end, we designed and synthesized a photoaffinity probe, YL-939-1 (Fig. 4A and Supplementary Fig. 5), which is YL-939 attached by a photo-crosslinker (L3) that contains a photo-reactive group diazirine and a clickable alkyne handle.

BRK(h) = molecular target: T2, BRK(h) (Homo sapiens, UniProt Q13882)
T2 construct: gene PTK6
T2 sequence (Q13882 whole entry): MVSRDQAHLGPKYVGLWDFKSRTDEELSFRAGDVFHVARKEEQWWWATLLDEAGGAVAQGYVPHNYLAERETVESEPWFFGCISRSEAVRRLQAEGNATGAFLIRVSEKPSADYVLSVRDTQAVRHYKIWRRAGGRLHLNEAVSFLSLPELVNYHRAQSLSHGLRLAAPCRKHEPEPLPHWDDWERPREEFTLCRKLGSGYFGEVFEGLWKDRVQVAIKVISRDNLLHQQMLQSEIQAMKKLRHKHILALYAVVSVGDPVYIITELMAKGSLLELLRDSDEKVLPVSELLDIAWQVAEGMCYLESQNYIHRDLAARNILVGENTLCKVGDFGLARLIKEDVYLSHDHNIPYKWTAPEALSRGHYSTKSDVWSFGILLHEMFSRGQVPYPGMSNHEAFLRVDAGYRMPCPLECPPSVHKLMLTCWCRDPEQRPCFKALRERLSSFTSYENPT
Source text: as §1

Blk(h) = Blk(h) (Homo sapiens, UniProt P51451)
Source text: as §1

CDK2/cyclinA(h) = CDK2/cyclinA(h) (Homo sapiens, UniProt P24941)
Source text: as §1

CDK6/cyclinD3(h) = CDK6/cyclinD3(h) (Homo sapiens, UniProt Q00534)
Source text: as §1

CDKL4(h) = CDKL4(h) (Homo sapiens, UniProt Q5MAI5)
Sequence of CDKL4(h) (Q5MAI5 whole entry): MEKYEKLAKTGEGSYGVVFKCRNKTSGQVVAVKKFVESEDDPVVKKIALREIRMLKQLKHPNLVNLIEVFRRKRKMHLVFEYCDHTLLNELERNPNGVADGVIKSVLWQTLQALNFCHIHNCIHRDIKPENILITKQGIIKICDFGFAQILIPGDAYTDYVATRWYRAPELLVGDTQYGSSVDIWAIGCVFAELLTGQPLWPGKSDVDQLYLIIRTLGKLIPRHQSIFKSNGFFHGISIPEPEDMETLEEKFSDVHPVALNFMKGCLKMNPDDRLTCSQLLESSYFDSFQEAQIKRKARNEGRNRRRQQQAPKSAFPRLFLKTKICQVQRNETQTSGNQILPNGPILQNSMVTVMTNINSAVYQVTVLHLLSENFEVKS
Source text: as §1

CSK(h) = CSK(h) (Homo sapiens, UniProt P41240)
Source text: as §1

DRAK1(h) = molecular target: T3, DRAK1(h) (Homo sapiens, UniProt Q9UEE5)
T3 construct: gene STK17A
Source text: as §1

EphA5(h) = EphA5(h) (Homo sapiens, UniProt P54756)
Source text: as §1

FGFR2(N549H)(h) = FGFR2(N549H)(h) (Homo sapiens, UniProt P21802, N549H)
Sequence of FGFR2(N549H)(h) (P21802 whole entry N549H): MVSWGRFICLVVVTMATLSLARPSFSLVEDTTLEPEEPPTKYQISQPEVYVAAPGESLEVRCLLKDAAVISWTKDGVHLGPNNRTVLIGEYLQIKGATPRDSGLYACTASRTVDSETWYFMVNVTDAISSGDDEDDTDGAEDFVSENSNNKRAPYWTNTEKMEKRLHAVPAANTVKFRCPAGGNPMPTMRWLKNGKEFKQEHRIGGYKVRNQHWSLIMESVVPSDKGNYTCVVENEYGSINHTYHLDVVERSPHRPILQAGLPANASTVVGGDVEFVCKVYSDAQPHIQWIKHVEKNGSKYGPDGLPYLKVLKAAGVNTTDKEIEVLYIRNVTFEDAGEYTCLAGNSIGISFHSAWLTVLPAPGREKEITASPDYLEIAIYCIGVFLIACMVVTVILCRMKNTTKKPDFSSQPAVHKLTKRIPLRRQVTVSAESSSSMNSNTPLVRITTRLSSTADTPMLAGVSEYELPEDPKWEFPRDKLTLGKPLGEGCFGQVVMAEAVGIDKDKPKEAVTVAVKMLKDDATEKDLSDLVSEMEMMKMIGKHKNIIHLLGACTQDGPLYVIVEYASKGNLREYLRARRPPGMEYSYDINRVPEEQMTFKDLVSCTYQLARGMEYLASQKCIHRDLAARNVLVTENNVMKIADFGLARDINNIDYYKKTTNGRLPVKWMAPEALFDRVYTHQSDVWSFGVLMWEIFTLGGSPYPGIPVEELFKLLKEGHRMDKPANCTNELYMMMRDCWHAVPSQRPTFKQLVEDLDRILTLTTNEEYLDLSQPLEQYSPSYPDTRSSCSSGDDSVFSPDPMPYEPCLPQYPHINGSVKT
Source text: as §1

Fms(Y969C)(h) = molecular target: T4, Fms(Y969C)(h) (Homo sapiens, UniProt P07333, Y969C)
T4 construct: gene CSF1R
Source text: as §1

GRK5(h) = GRK5(h) (Homo sapiens, UniProt P34947)
Source text: as §1

IKKε(h) = molecular target: T5, IKKε(h) (Homo sapiens, UniProt Q14164)
T5 construct: gene IKBKE
Source text: as §1

MKK6(h) = molecular target: T6, MKK6(h) (Homo sapiens, UniProt P52564)
T6 construct: gene MAP2K6
Source text: as §1

MRCKβ(h) = molecular target: T7, MRCKβ(h) (Homo sapiens, UniProt Q9Y5S2)
T7 construct: gene CDC42BPB
T7 sequence (Q9Y5S2 whole entry): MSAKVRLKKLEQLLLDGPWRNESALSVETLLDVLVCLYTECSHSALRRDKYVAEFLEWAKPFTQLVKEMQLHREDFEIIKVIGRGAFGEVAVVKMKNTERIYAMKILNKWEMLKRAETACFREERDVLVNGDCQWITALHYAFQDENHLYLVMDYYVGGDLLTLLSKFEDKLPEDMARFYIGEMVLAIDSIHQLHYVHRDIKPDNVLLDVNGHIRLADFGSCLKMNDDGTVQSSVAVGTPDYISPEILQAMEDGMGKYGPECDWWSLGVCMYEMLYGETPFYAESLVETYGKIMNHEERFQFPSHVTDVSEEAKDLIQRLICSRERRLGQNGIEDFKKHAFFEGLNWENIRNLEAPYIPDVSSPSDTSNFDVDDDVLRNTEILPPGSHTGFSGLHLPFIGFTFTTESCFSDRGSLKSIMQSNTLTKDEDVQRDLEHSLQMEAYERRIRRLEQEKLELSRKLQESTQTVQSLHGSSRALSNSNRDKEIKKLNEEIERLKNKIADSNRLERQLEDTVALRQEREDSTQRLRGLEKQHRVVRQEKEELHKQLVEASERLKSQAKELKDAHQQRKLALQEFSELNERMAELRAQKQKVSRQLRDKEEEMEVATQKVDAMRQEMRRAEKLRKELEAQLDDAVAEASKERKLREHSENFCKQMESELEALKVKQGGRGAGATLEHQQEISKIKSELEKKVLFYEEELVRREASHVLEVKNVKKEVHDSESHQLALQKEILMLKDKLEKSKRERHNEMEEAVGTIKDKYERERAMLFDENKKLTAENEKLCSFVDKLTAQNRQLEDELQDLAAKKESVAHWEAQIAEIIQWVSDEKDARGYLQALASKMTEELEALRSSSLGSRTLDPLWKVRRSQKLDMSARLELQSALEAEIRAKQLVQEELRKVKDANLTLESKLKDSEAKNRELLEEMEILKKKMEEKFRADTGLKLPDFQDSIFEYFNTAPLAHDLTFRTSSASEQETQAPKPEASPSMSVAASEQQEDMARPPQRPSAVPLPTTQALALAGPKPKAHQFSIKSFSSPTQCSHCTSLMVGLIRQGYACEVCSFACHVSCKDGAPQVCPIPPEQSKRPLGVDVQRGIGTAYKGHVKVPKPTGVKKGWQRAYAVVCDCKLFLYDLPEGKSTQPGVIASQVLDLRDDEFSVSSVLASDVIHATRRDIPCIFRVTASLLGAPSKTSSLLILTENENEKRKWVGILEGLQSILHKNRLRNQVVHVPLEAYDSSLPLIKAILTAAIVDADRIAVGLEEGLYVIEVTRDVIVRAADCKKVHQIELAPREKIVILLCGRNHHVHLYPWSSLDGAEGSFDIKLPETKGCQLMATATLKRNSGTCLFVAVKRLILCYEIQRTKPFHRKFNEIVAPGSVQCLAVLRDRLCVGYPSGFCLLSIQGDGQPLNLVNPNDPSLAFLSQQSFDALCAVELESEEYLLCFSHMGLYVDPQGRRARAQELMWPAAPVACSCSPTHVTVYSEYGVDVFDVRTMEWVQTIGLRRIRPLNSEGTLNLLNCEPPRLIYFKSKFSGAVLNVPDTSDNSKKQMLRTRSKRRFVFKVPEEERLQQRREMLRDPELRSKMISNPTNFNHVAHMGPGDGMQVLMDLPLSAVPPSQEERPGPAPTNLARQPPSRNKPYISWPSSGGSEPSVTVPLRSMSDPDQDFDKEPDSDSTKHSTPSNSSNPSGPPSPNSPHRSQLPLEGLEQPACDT
Source text: as §1

MYO3B(h) = MYO3B(h) (Homo sapiens, UniProt Q8WXR4)
Sequence of MYO3B(h) (Q8WXR4 whole entry): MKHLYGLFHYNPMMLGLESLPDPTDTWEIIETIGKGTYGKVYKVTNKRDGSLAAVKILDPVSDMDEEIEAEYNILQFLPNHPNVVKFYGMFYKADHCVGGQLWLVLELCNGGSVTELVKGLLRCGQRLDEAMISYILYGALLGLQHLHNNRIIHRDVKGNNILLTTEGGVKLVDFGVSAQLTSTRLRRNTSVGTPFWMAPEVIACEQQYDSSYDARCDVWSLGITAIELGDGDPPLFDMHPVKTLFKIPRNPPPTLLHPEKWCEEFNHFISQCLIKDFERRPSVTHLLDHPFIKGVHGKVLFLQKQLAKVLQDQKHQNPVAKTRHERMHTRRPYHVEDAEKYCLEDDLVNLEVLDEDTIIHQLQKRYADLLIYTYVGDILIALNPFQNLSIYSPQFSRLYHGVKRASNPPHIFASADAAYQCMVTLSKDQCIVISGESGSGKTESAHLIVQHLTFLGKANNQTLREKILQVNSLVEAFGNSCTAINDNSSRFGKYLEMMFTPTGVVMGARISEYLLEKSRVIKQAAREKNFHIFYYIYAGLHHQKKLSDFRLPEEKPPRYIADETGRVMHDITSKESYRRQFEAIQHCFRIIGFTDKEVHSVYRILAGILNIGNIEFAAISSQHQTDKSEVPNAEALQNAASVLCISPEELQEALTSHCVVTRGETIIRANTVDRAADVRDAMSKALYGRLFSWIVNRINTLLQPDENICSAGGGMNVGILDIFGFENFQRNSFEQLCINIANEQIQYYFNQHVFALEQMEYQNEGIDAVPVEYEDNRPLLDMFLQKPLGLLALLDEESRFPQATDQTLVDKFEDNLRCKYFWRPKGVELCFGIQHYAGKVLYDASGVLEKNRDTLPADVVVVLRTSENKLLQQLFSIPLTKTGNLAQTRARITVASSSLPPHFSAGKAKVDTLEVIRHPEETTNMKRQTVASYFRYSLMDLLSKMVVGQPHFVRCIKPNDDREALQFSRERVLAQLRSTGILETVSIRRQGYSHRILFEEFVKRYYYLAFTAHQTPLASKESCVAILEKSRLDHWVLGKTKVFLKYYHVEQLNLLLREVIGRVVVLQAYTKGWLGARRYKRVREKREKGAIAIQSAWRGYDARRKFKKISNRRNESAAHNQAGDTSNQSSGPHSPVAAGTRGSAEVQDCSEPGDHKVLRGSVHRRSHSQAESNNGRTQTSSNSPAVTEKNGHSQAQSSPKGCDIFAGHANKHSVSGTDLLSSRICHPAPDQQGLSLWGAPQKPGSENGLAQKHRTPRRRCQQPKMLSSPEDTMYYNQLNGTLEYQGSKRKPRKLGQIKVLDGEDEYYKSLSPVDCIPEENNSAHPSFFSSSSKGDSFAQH
Source text: as §1

NEK1(h) = NEK1(h) (Homo sapiens, UniProt Q96PY6)
Source text: as §1

PDHK2(h) = molecular target: T8, PDHK2(h) (Homo sapiens, UniProt Q15119)
T8 construct: gene PDK2
Source text: as §1

Ret(V804M)(h) = Ret(V804M)(h) (Homo sapiens, UniProt P07949, V804M)
Source text: as §1

TSSK1(h) = molecular target: T9, TSSK1(h) (Homo sapiens, UniProt Q9BXA7)
T9 construct: gene TSSK1B
T9 sequence (Q9BXA7 whole entry): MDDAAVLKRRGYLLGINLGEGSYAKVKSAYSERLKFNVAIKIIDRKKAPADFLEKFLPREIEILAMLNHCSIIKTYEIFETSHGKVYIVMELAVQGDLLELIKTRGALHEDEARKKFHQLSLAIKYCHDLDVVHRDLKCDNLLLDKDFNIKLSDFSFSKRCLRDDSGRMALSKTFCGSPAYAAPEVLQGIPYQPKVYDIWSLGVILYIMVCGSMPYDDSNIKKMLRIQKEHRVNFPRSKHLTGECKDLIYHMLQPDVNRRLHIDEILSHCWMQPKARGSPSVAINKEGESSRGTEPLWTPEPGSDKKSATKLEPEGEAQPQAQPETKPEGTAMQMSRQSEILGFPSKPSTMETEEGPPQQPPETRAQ
Source text: as §1

Tie2 (h) = molecular target: T10, Tie2 (h) (Homo sapiens, UniProt Q02763)
T10 construct: gene TEK
Source text: as §1

Txk(h) = Txk(h) (Homo sapiens, UniProt P42681)
Source text: as §1

mTOR(h) = mTOR(h) (Homo sapiens, UniProt P42345)
Source text: as §1

C1=C(c2nc(-c3cnn(C4CCNCC4)c3)cn3cc(-c4ccccc4)nc23)CCOC1 [YL-939]
remaining activity at 10 µM (Abl(T315I)(h)): 119% | remaining activity at 10 µM (BRK(h)): 109% | remaining activity at 10 µM (Blk(h)): 100% | remaining activity at 10 µM (CDK2/cyclinA(h)): 95% | remaining activity at 10 µM (CDK6/cyclinD3(h)): 94% | remaining activity at 10 µM (CDKL4(h)): 76% | remaining activity at 10 µM (CSK(h)): 105% | remaining activity at 10 µM (DRAK1(h)): 60% | remaining activity at 10 µM (EphA5(h)): 96% | remaining activity at 10 µM (FGFR2(N549H)(h)): 94% | remaining activity at 10 µM (Fms(Y969C)(h)): 107% | remaining activity at 10 µM (GRK5(h)): 72% | remaining activity at 10 µM (IKKε(h)): 113% | remaining activity at 10 µM (MKK6(h)): 106% | remaining activity at 10 µM (MRCKβ(h)): 84% | remaining activity at 10 µM (MYO3B(h)): 89% | remaining activity at 10 µM (NEK1(h)): 105% | remaining activity at 10 µM (PDHK2(h)): 87% | remaining activity at 10 µM (Ret(V804M)(h)): 102% | remaining activity at 10 µM (TSSK1(h)): 80% | remaining activity at 10 µM (Tie2 (h)): 81% | remaining activity at 10 µM (Txk(h)): 73% | remaining activity at 10 µM (mTOR(h)): 91%
